In US20090098050A1, “CALCIUM BINDING PEPTIDES” (THE REGENTS OF THE UNVERSITY OF CALIFORNIA, priority 2005, published 2009):
No end group written: not given here.

Key:
[1] = Binding of fluorescein-labeled peptides to hydroxyapatite nanocrystals (Langmuir isotherm); conditions: Langmuir fit; for KA, affinity constant of the peptide for the hydroxyapatite surface: fluorescein-labeled peptide 0-100 μM, 0.3 mg hydroxyapatite, ten minutes
Experimental: FIG. 1: Binding affinities of DSS and DSS variant peptides for hydroxyapatite and tooth surfaces. A-C. Fluorescein-labeled peptides at concentrations ranging from 0-100 μM were incubated with 0.3 mg of hydroxyapatite nanocrystals (specific surface area=100 m^2/g) for ten minutes, followed by removal of the hydroxyapatite by centrifugation. The amount of peptide in the mixture before and after hydroxyapatite removal was determined by Abs480. Isotherms were plotted and fit to the Langmuir equation to extract values for KA, a constant reflecting the affinity of the peptide for the hydroxyapatite surface. D. Sagitally sectioned human teeth were incubated with 12.5 μM 5(6) carboxyfluorescein-labeled 6DSS peptide for ten minutes, followed by rinsing. Peptide binding to tooth surfaces was visualized by Confocal Laser Scanning Microscopy (CLSM) using blue laser illumination (λA=488 nm) and a FITC emission filter. Left side, light colored region: dentin. Right side, dark colored region: enamel.
Four DSS peptides containing two (2DSS, SEQ ID NO:12), four (4DSS, SEQ ID NO:13), six (6DSS, SEQ ID NO:14), or eight(8DSS, SEQ ID NO:15) Asp-Ser-Ser (DSS) repeats were generated. Peptides were labeled with fluorescein, and various concentrations of the labeled peptides (0-100 μM) were mixed with a fixed amount (0.3 mg) of hydroxyapatite nanocrystals having a specific surface area of 100 m^2/g (Berkeley Advanced Biomaterials, Inc.). Samples were incubated for ten minutes, followed by removal of the hydroxyapatite by centrifugation. The amount of peptide in the mixture was measured both before and after hydroxyapatite removal by spectroscopic absorbance at 480 nm (the peak absorbance of the fluorescein label). The amount of peptide bound was calculated by comparing the ratio of the final (Af) and initial (Ai) absorbances to the initial concentration (P0) [Pbound=[…]]. Plots were generated illustrating the amount of peptide bound per m^2 of hydroxyapatite surface area versus concentration of unbound peptide at equilibrium. The resulting isotherms were fit to the Langmuir isotherm (x/m=(KANMaxCeq)/(1+KACeq)) (Calis 1995), which describes the binding activity of a molecule in terms of a combination of binding affinity (KA) and avidity (NMax). KA represents the affinity constant of the peptide for the hydroxyapatite surface. In this equation, x/m represents the molar amount of peptide bound per unit of hydroxyapatite surface area, NMax represents the maximum surface concentration (mol/m^2), and Ceq represents the molar concentration of unbound peptide at equilibrium. The Langmuir isotherm describes the binding of molecules to surfaces with the conditions that 1) all binding sites have the same affinity for the peptide, and 2) the peptide will form a monolayer on the surface but cannot accumulate to higher levels. The excellent fit of the Langmuir isotherm to the experimental data validates these conditions, and these affinity constants were used for comparisons between peptides.

[2] = Preferential binding to carious lesions in teeth (CLSM); parameters: species or system human; conditions: labeled peptide, settings optimized per sample
Experimental: FIG. 9: Fluorescence micrographs showing specific binding of DSS peptides and variants to carious lesions in teeth. Adult human teeth were exposed to 12.5 uM 5(6)-carboxyfluorescein-labeled peptide without demineralization, washed extensively, and imaged by CLSM. Microscope and camera settings were optimized separately for each sample. […] White traces on the right side of each panel identify the position of the tooth surface, while arrows indicate the position of the stained lesion.
Sections of human teeth containing obvious carious lesions, which consist of demineralized enamel, were polished and exposed to 5(6)-carboxyfluorescein-labeled DSS peptides and variants using the protocol described in Example 2. The sections were washed extensively and imaged by CLSM using blue laser illumination (λ=488 nm) and a FITC emission filter, with microscope and camera settings adjusted for each sample to optimize the signal detected from each peptide. The images were examined to identify the relative levels of peptide binding in healthy versus carious tissue. […] Given their ability to remineralize at sites of enamel degradation (Example 6), they can also be used to initiate remineralization at sites of enamel degradation such as caries or injury sites without causing inappropriate nucleation on healthy tissue surfaces.

[3] = Tissue specific binding of DSS peptides and variants in human teeth (CLSM); conditions: 12.5 μM labeled peptide; for Tissue binding pattern in healthy tooth section: nondemineralized teeth
Experimental: FIG. 8: Fluorescence micrographs showing tissue specificity in the binding of DSS peptides and variants. Adult human teeth were exposed to 12.5 μM 5(6)-carboxyfluorescein-labeled peptide without demineralization, washed extensively, and imaged by CLSM. For each section, multiple scans were collected and assembled in an automated mode to generate panels of images representing an area of 13×13 mm, sufficient in most cases to encompass the whole section. The peptides used for each section are labeled beneath each panel, and within each panel the tooth is oriented with the root toward the top of the image and the crown toward the bottom. Tissue layers are labeled as follows: RTD=Root Tip Dentin; CPD=Circumpulpal Dentin; MD=Mantle Dentin; P=Pulp Cavity Wall; DEJ=Dentin-Enamel Junction; E=Enamel; BE=Basal Enamel; CE=Cortical Enamel; CL=Carious Lesion; PB=Periodontal Bone.
In order to investigate the tissue specificity of DSS peptide binding to tooth tissue, sections of human teeth were exposed to DSS peptides and variants, then imaged by CLSM as described in Example 2. The peptides utilized for these experiments were 8DSS, 8ASS, 8DAA, 8NAA, 4DSS, 4ESS, 4NSS, 4DTT, 4ETT, 4NTT, and 6DSS. Sagittal sections of human teeth extracted during normal clinical practice were polished and then incubated for ten minutes in a solution of the appropriate 5(6) carboxyfluorescein-labeled peptide (12.5 μM) containing 10 mM NaCl and 50 mM HEPES, pH 7.0. Control samples were prepared without peptide. Samples were washed extensively after treatment and imaged by CLSM using blue laser illumination (λ=488 nm) and a FITC emission filter, with identical camera and microscope settings for each sample. For each section, multiple scans were collected and assembled in an automated mode to generate panels of images representing an area of 13×13 mm, sufficient in most cases to encompass the whole section. […] Significant binding was also seen to the edges of the pulp cavity.

Substance | KA, affinity constant of the peptide for the hydroxyapatite surface [1] | NMax, maximum surface concentration (available binding sites on HA surface) [1] | Specificity of binding to carious lesions versus surrounding healthy enamel [2] | Strength of staining of carious lesions [2] | Tissue binding pattern in healthy tooth section [3] | Binding to fragment of periodontal bone attached to the sample [3] | Binding to carious lesion present in the sample [3]
2DSS: peptide containing two Asp-Ser-Ser (DSS) repeats, SEQ ID NO:12 (DSSDSS; calcium binding peptide containing two DSS repeats, 2DSS) | 57,000 M^−1 | – | – | – | – | – | –
4DSPS: partially phosphorylated four repeat DSS peptide, SEQ ID NO:25 (DSSDSSDSSDSS; also: partially phosphorylated, sites not given here) | 83,000 M^−1 | 1.2×10^−7 mol/m^2 | – | – | – | – | –
4DSS: peptide containing four Asp-Ser-Ser (DSS) repeats, SEQ ID NO:13 (DSSDSSDSSDSS; calcium binding peptide containing four DSS repeats, 4DSS, (DSS)-4) | 94,000 M^−1 | 5.8×10^−8 mol/m^2 | highly specific binding to carious lesions | exceptionally strong staining of carious lesions | bound primarily to the mantle dentin | – | –
4DTT: four repeat peptide containing more sterically hindered hydroxyl groups at second and third positions, SEQ. ID NO. 17 (DTTDTTDTTDTT; variant DSS four repeat peptide containing more sterically hindered hydroxyl groups at second and third positions, 4DTT) | 161,000 M^−1 | – | – | – | binding patterns similar to those of 4DSS and 4ESS, though at sharply reduced levels | – | –
4ESS: four repeat peptide containing a longer sidechain at the first position, SEQ. ID NO. 16 (ESSESSESSESS; variant DSS four repeat peptide containing longer sidechain at first position, 4ESS) | 81,000 M^−1 | – | highly specific binding to carious lesions | exceptionally strong staining of carious lesions | – | – | –
4ETT: four repeat peptide containing more sterically hindered hydroxyl groups at second and third positions, SEQ. ID NO. 19 (ETTETTETTETT; variant DSS four repeat peptide containing more sterically hindered hydroxyl groups at second and third positions, 4ETT) | 61,000 M^−1 | – | highly specific binding to carious lesions | – | binding patterns similar to those of 4DSS and 4ESS, though at sharply reduced levels | – | –
4NAA: label printed only in b88, not defined; probably a misprint (NAANAANAANAA; variant DSS four repeat peptide lacking hydroxyl group at seond and third positions, 4NAA) | – | – | – | exceptionally strong staining of carious lesions | – | – | –
4NSS: four repeat peptide lacking a charged group at the first position, SEQ. ID NO. 20 (NSSNSSNSSNSS; variant DSS four repeat peptide lacking negatively charged group at first position, 4NSS) | 41,000 M^−1 | – | highly specific binding to carious lesions | – | – | – | –
4NTT: four repeat peptide containing more sterically hindered hydroxyl groups at second and third positions, SEQ. ID NO. 18 (NTTNTTNTTNTT; variant DSS four repeat peptide containing more sterically hindered hydroxyl groups at second and third positions, 4NTT) | 18,000 M^−1 | – | – | – | very low levels of binding to the healthy tooth tissue | strong binding | –
8ASS: eight repeat peptide lacking a charged group at the first position, SEQ. ID NO. 21 (ASSASSASSASSASSASSASSASS; variant DSS eight repeat peptide lacking negatively charged group at first position, 8ASS) | 170,000 M^−1 | – | highly specific binding to carious lesions | exceptionally strong staining of carious lesions | – | – | –
8DAA: eight repeat peptide lacking hydroxyl groups at the second and third positions, SEQ. ID NO. 22 (DAADAADAADAADAADAADAADAA; variant DSS eight repeat peptide lacking hydroxyl group at seond and third positions, 8DAA) | 300,000 M^−1 | – | highly specific binding to carious lesions | exceptionally strong staining of carious lesions | primary binding to the root tip dentin and cortical enamel, as well as to the dentin-enamel junction and the pulp cavity wall | – | –
8NAA: eight repeat peptide lacking hydroxyl groups at the second and third positions, SEQ. ID NO. 23 (NAANAANAANAANAANAANAANAA; variant DSS eight repeat peptide lacking hydroxyl group at seond and third positions, 8NAA) | 20,000 M^−1 | – | highly specific binding to carious lesions | – | very little binding to any healthy tissue | – | did bind somewhat to a carious lesion
